The values that follow come from patent US11096985B2, “Antimicrobial peptides, their variants and uses” (priority 2015, dated 2021).

Where a SMILES comes first, the peptide text is derived from it. [ ]: non-standard residue; d: D form.

One test deals with S. aureus COL (MRSA). As to the kind of experiment: Synergistic activity with Ertapenem (4 μg/ml) against MRSA, MIC. It counts as cell-based, Staphylococcus aureus. The following applies: S. aureus COL, together with 4 μg/ml Ertapenem (synergistic activity). The procedure: (§1) Minimum inhibition concentrations (MICs) were determined against Escherichia coli (ATCC 25922), Staphylococcus aureus (ATCC 25923), Klebsiella pneumoniae (ATCC 10031) and Pseudomonas aeruginosa (ATCC 27853). Also clinical strains of E. coli, K. pneumoniae, E. cloacae, P. aeruginosa, Serratia marcescens, Proteus mirabilis, S. pneumoniae, Acinetobacter baumannii, A. johnsonii and S. aureus were used for MICs assays. Additionally, clinical strains of yeast including Candida albicans, C. glabrata, C. parapsilosis and C. quillermondiae were used. The susceptibility of these microorganisms to Chain peptides were determined using micro broth dilution assay. Colonies of the respective microorganism from Muller Hinton (MH) agar plates incubated overnight were suspended in MH broth media and final concentration of microorganism was adjusted to 5.0×10^5 cfu/ml. An aliquot of 10 μl of each Chain peptide, or gentamicin, tetracycline as reference antibiotics were added in differing concentrations along with 90 μl of bacterial suspension to 96 well polypropylene plates and incubated at 37° C. for 20 to 24 hours. Concentrations of Chain peptides and reference antibiotics ranged from 0.125 to 128 μg/ml and the MICs were recorded as the lowest concentration with no visual growth of bacteria. Similarly, antifungal MICs were tested in Potato dextrose broth.
(§2) Peptides Chain 104, Chain 105, Chain 201, Chain 308, Chain 310 were tested against antibiotic-sensitive strains of S. aureus RN4220 and methicillin resistant strains of S. aureus COL (MRSA). Chain peptides comprising of either L- or D-form amino acids were tested against these bacteria, and the D-form peptides were found have better activity compared to L-form (Table 6). Synergistic activity of chain peptides along with Ertapenem (4 μg/ml) was tested to know whether it will influence the activity against MRSA strains. […] Chain 310 has the best antibacterial activity against the MRSA strains with a MIC of 0.06 & 0.03 μg/ml along with Ertapenem (4 μg/ml) for both forms of L and D-peptides (Table 6).

For a further test, the system named is S. aureus RN4220. It counts as cell-based, Staphylococcus aureus. The following applies: antibiotic sensitive strain S. aureus RN4220. How it is done:
as §1, §2

The subject of test [1] is clinical strains of C. quillermondiae. Put plainly: MIC, clinical yeast strains, C. quillermondiae. It counts as cell-based. The following applies: C. quillermondiae clinical yeast strain 1. The procedure:
as §1
(§3) Clinical strains of yeasts including Candida albicans, C. glabrata, C. parapsilosis and C. quillermondiae were also tested with the 12 Chain peptides. The minimum inhibitory concentration (MICs) varied between these peptides and are presented in Tables 4a, 4b, 4c and 5a, 5b, 5c. Peptides Chain 105, 201 and 308 are broad spectrum antimicrobials with MICs between 0.5-32 μg/ml against all the bacteria and yeasts tested, except Serratia marcescens and Proteus mirabilis, against which the MICs were between 64-128 μg/ml. Peptide Chain 306 has narrow spectrum activity against E.coli at 1 μg/ml and for the rest of the bacterial strains at >32 μg/ml (FIG. 10).

Test [2] has as its system clinical strains of Candida albicans. As to the kind of experiment: MIC, clinical yeast strains, Candida albicans. The class given is cell-based. Details: unit: μg/ml. How it is done: as §1, §3
Test [3] deals with clinical strains of C. glabrata. As to the kind of experiment: MIC, clinical yeast strains, C. glabrata. The class given is cell-based, Candida glabrata. Further details: unit: μg/ml. The procedure:
as §1, §3

The subject of test [4] is clinical strains of C. parapsilosis. As to the kind of experiment: MIC, clinical yeast strains, C. parapsilosis. The class given is cell-based, Candida parapsilosis. Further details: unit: μg/ml. The procedure:
as §1, §3

Setting [5] is: Candida albicans clinical yeast strain 1.
Where [6] appears, read: Candida albicans clinical yeast strain 2.
Where [7] appears, read: Candida albicans clinical yeast strain 3.
[8] abbreviates: Candida albicans clinical yeast strain 4.
Where [9] appears, read: Candida albicans clinical yeast strain 5.
Where [10] appears, read: C. glabrata clinical yeast strain 1.
[11] abbreviates: C. glabrata clinical yeast strain 2.
Where [12] appears, read: C. glabrata clinical yeast strain 3.
[13] abbreviates: C. glabrata clinical yeast strain 4.
Setting [14] is: C. parapsilosis clinical yeast strain 1.
The mark [15] stands for this setting: C. parapsilosis clinical yeast strain 2.
The mark [16] stands for this setting: C. parapsilosis clinical yeast strain 3.
Where [17] appears, read: C. parapsilosis clinical yeast strain 4.

Turning to `CC[C@@H](C)[C@@H](NC(=O)[C@@H](CCSC)NC(=O)[C@@H](C)NC(=O)[C@@H](CCCNC(=N)N)NC(=O)[C@@H](Cc1c[nH]c2ccccc12)NC(=O)[C@@H](CCCCN)NC(=O)[C@H](N)CCCNC(=N)N)C(=O)N[C@H](CCCNC(=N)N)C(=O)N[C@H](CC(C)C)C(=O)N[C@H](Cc1c[nH]cn1)C(=O)N[C@H](C)C(=O)N[C@H](CCCCN)C(=O)N[C@H](CCCNC(=N)N)C(=O)N[C@H](CC(C)C)C(=O)N[C@H](CCCNC(=N)N)C(=O)N[C@H](CCCCN)C(=O)O` [104 D] (H-[dR][dK][dW][dR][dA][dM][dI][dR][dL][dH][dA][dK][dR][dL][dR][dK]-OH), in the test with S. aureus COL (MRSA), the “Minimum inhibitory concentration (MIC), S. aureus COL + 4 μg/ml Ertapenem” value stood at 4 µg/mL. Also, the “Minimum inhibitory concentration (MIC), S. aureus RN4220” value in the test on S. aureus RN4220 came to 64 µg/mL.

With `CC[C@@H](C)[C@@H](NC(=O)[C@@H](CCSC)NC(=O)[C@@H](C)NC(=O)[C@@H](CCCNC(=N)N)NC(=O)[C@@H](Cc1c[nH]c2ccccc12)NC(=O)[C@@H](CCCCN)NC(=O)[C@H](N)CCCNC(=N)N)C(=O)N[C@H](CCCNC(=N)N)C(=O)N[C@H](CC(C)C)C(=O)N[C@H](Cc1c[nH]cn1)C(=O)N[C@H](C)C(=O)N[C@H](CCCCN)C(=O)N[C@H](Cc1c[nH]c2ccccc12)C(=O)N[C@H](CC(C)C)C(=O)N[C@H](CCCNC(=N)N)C(=O)N[C@H](CCCCN)C(=O)O` [105 D] (H-[dR][dK][dW][dR][dA][dM][dI][dR][dL][dH][dA][dK][dW][dL][dR][dK]-OH), the “Minimum inhibitory concentration (MIC), S. aureus COL + 4 μg/ml Ertapenem” value with S. aureus COL (MRSA) was 2 µg/mL. Also, in the test with S. aureus RN4220, the “Minimum inhibitory concentration (MIC), S. aureus RN4220” value was found to be 16 µg/mL.

For the compound `CC[C@@H](C)[C@@H](NC(=O)[C@@H](Cc1c[nH]c2ccccc12)NC(=O)[C@H](N)CCCCN)C(=O)N[C@@H](C(=O)N[C@H](Cc1c[nH]c2ccccc12)C(=O)N[C@H](CCCNC(=N)N)C(=O)N[C@H](Cc1c[nH]c2ccccc12)C(=O)N[C@H](CCCNC(=N)N)C(=O)N[C@H](Cc1ccccc1)C(=O)N[C@H](CCCCN)C(=O)N[C@H](CCCNC(=N)N)C(=O)O)C(C)C` [201 D] (H-[dK][dW][dI][dV][dW][dR][dW][dR][dF][dK][dR]-OH), in the test with S. aureus COL (MRSA), the “Minimum inhibitory concentration (MIC), S. aureus COL + 4 μg/ml Ertapenem” value was 1 µg/mL. In addition, in the test on S. aureus RN4220, the “Minimum inhibitory concentration (MIC), S. aureus RN4220” value came to 2 µg/mL.

Turning to `CC(C)C[C@@H](NC(=O)[C@H](N)CCCNC(=N)N)C(=O)N[C@H](CCCCN)C(=O)N[C@H](Cc1c[nH]c2ccccc12)C(=O)N[C@H](Cc1ccccc1)C(=O)N[C@H](CC(C)C)C(=O)N[C@H](CC(C)C)C(=O)N[C@H](Cc1ccccc1)C(=O)N[C@H](CCCNC(=N)N)C(=O)N[C@H](CCCCN)C(=O)N[C@H](CCCNC(=N)N)C(=O)O` [308 D] (H-[dR][dL][dK][dW][dF][dL][dL][dF][dR][dK][dR]-OH), the “Minimum inhibitory concentration (MIC), S. aureus COL + 4 μg/ml Ertapenem” value with S. aureus COL (MRSA) is 1 µg/mL. Moreover, the “Minimum inhibitory concentration (MIC), S. aureus RN4220” value with S. aureus RN4220 was found to be 4 µg/mL.

Consider `CC(C)C[C@@H](NC(=O)[C@@H](CCCCN)NC(=O)[C@@H](CCCCN)NC(=O)[C@@H](Cc1ccccc1)NC(=O)[C@@H](CC(C)C)NC(=O)[C@@H](Cc1c[nH]c2ccccc12)NC(=O)[C@@H](CCCNC(=N)N)NC(=O)[C@@H](Cc1c[nH]c2ccccc12)NC(=O)[C@@H](CCCCN)NC(=O)[C@@H](CCCNC(=N)N)NC(=O)[C@H](N)CCCCN)C(=O)O` [310 D] (H-[dK][dR][dK][dW][dR][dW][dL][dF][dK][dK][dL]-OH), for which, in the test with S. aureus COL (MRSA), the “Minimum inhibitory concentration (MIC), S. aureus COL + 4 μg/ml Ertapenem” value is under 0.03 µg/mL. Besides, the “Minimum inhibitory concentration (MIC), S. aureus RN4220” value in the test with S. aureus RN4220 was over 64 µg/mL.

On to `C[C@@H]1[C@H](O)[C@@H](C)/C=C/C=C/C=C/C=C/C=C/C=C/C=C/[C@H](O[C@@H]2O[C@H](C)[C@@H](O)[C@H](N)[C@@H]2O)C[C@@H]2O[C@](O)(C[C@@H](O)C[C@@H](O)[C@H](O)CC[C@@H](O)C[C@@H](O)CC(=O)O[C@H]1C)C[C@H](O)[C@H]2C(=O)O` [Amphotericin B, reference compound], for which the Minimum inhibitory concentration in test [1] came out at 2; in test [2] (setting [5]) it was 2; in test [2] (setting [6]), 0.5; in test [2] (setting [7]), 2; in test [2] (setting [8]), 2; in test [2] (setting [9]) it was 2. Besides, the Minimum inhibitory concentration in test [3] (setting [10]) amounted to 4; in test [3] (setting [11]), 4; in test [3] (setting [12]), 2; in test [3] (setting [13]), 4; in test [4] (setting [14]), 2; in test [4] (setting [15]), 2. Also, the Minimum inhibitory concentration in test [4] (setting [16]) and in test [4] (setting [17]) was 2 throughout.

Consider `CC(C)C[C@@H](NC(=O)[C@@H](CCCCN)NC(=O)[C@@H](Cc1c[nH]c2ccccc12)NC(=O)[C@@H](CCCCN)NC(=O)[C@@H](C)NC(=O)[C@@H](Cc1c[nH]cn1)NC(=O)[C@@H](CC(C)C)NC(=O)[C@@H](CCCNC(=N)N)NC(=O)[C@@H](Cc1c[nH]c2ccccc12)NC(=O)[C@H](N)Cc1c[nH]c2ccccc12)C(=O)N[C@H](Cc1c[nH]c2ccccc12)C(=O)O` [Chain109D] (H-[dW][dW][dR][dL][dH][dA][dK][dW][dK][dL][dW]-OH), for which the Minimum inhibitory concentration in test [1], in test [2] (setting [5]), in test [2] (setting [6]), in test [2] (setting [7]), in test [2] (setting [8]) and in test [2] (setting [9]) was 128 in each case. Moreover, the Minimum inhibitory concentration in test [3] (setting [10]) was 128; in test [3] (setting [11]), 128; in test [3] (setting [12]), 16; in test [3] (setting [13]), 64; in test [4] (setting [14]), 128; in test [4] (setting [15]), 128. For the same compound, the Minimum inhibitory concentration in test [4] (setting [16]) stood at 128; in test [4] (setting [17]), 8.

Regarding `CC[C@H](C)[C@H](NC(=O)[C@H](CCSC)NC(=O)[C@H](C)NC(=O)[C@H](CCCNC(=N)N)NC(=O)[C@H](Cc1c[nH]c2ccccc12)NC(=O)[C@H](CCCCN)NC(=O)[C@@H](N)CCCNC(=N)N)C(=O)N[C@@H](CCCNC(=N)N)C(=O)N[C@@H](CC(C)C)C(=O)N[C@@H](Cc1c[nH]cn1)C(=O)N[C@@H](C)C(=O)N[C@@H](CCCCN)C(=O)N[C@@H](CCCNC(=N)N)C(=O)N[C@@H](CC(C)C)C(=O)N[C@@H](CCCNC(=N)N)C(=O)N[C@@H](CCCCN)C(=O)O` [Compound 104] (H-RKWRAMIRLHAKRLRK-OH), the “Minimum inhibitory concentration (MIC), S. aureus COL + 4 μg/ml Ertapenem” value with S. aureus COL (MRSA) was 0.25 µg/mL. Further, in the test on S. aureus RN4220, the “Minimum inhibitory concentration (MIC), S. aureus RN4220” value is over 64 µg/mL.

As for `CC[C@H](C)[C@H](NC(=O)[C@H](CCSC)NC(=O)[C@H](C)NC(=O)[C@H](CCCNC(=N)N)NC(=O)[C@H](Cc1c[nH]c2ccccc12)NC(=O)[C@H](CCCCN)NC(=O)[C@@H](N)CCCNC(=N)N)C(=O)N[C@@H](CCCNC(=N)N)C(=O)N[C@@H](CC(C)C)C(=O)N[C@@H](Cc1c[nH]cn1)C(=O)N[C@@H](C)C(=O)N[C@@H](CCCCN)C(=O)N[C@@H](Cc1c[nH]c2ccccc12)C(=O)N[C@@H](CC(C)C)C(=O)N[C@@H](CCCNC(=N)N)C(=O)N[C@@H](CCCCN)C(=O)O` [Compound 105] (H-RKWRAMIRLHAKWLRK-OH), the “Minimum inhibitory concentration (MIC), S. aureus COL + 4 μg/ml Ertapenem” value in the test with S. aureus COL (MRSA) was 0.5 µg/mL. In addition, the “Minimum inhibitory concentration (MIC), S. aureus RN4220” value in the test on S. aureus RN4220 is over 64 µg/mL.

As for `CC[C@H](C)[C@H](NC(=O)[C@H](Cc1c[nH]c2ccccc12)NC(=O)[C@@H](N)CCCCN)C(=O)N[C@H](C(=O)N[C@@H](Cc1c[nH]c2ccccc12)C(=O)N[C@@H](CCCNC(=N)N)C(=O)N[C@@H](Cc1c[nH]c2ccccc12)C(=O)N[C@@H](CCCNC(=N)N)C(=O)N[C@@H](Cc1ccccc1)C(=O)N[C@@H](CCCCN)C(=O)N[C@@H](CCCNC(=N)N)C(=O)O)C(C)C` [Compound 201] (H-KWIVWRWRFKR-OH), the “Minimum inhibitory concentration (MIC), S. aureus COL + 4 μg/ml Ertapenem” value with S. aureus COL (MRSA) is 0.5 µg/mL. Also, in the test on S. aureus RN4220, the “Minimum inhibitory concentration (MIC), S. aureus RN4220” value came to 64 µg/mL.
